Laboratory results published in patent US8440724B2, “Inhibiting neurotransmitter reuptake” (Mayo Foundation for Medical Education and Research, priority 2008, dated 2013).
Entries after “also recorded” stand apart in the source; their conditions may differ. Read-outs that look alike come from different tables or passages of the source.

How the values were obtained:
hSERT, hNET, hDAT = test: Human transporter binding: rank order and range of potency over the three transporters; conditions: for Potency (rank-order of potency of binding; S = hSERT, N = hNET, D = hDAT): from KD values; for Potency Range (difference between most potent and least potent binding): ratio of KD over hSERT, hNET, hDAT
Excerpt: (§1) The program was modified to calculate the Hill coefficient (nH). Data are presented as geometric mean±S.E.M. of at least three independent experiments. One-component models and two-component models were compared using the root mean square error of each fit and the F test.

[1] = tested on: rat 5-HT, NE and DA transport, synaptosomal preparations; test: Rat brain synaptosomal transport: rank order of potency; type: biochemical
Experimental: The dissected tissues were separately homogenized in 20 volumes (cortical) or 40 volumes (striatal) of ice-cold, oxygenated HEPES buffer 0.32 M sucrose containing 11 mM glucose (pH 7.4) in a glass Potter-Elvehjem homogenizer with Teflon® pestle (8 strokes, 900 rpm). The homogenates were centrifuged at 1,000×g for 10 minutes. The resulting supernatant was decanted and further centrifuged at 20,000×g for 20 minutes at 4° C. […] The synaptosomal protein concentration was determined by using the BCA assay (Pierce Biotechnology Inc, Rockford, Ill.), according to the manufacturer's instructions. Synaptosomal protein (1.0-2.5 mg) was suspended in 1 mL oxygenated incubation buffer as defined above. Test amine compound was pre-incubated with the synaptosomal preparation for 30 minutes at 37° C. in a shaking water bath (80 oscillations/minute).

[2] = target: T1, human serotonin transporter (hSERT) (Homo sapiens, UniProt P31645); test: Radioligand binding to cloned hSERT, [3H]citalopram, HEK-293 cell membranes; conditions: for Kd: Geometric Mean ± SEM, HCl salts, read-out: Equilibrium Dissociation Constant (KD) for Transporter Binding, hSERT (S); for Binding at hSERT compared to PRC200-SS: in words
T1 construct: expressed in transfected cells; host or cells: HEK-293, stably transfected
Experimental: (§2) HEK-293 cells expressing the recombinant hSERT or hDAT were incubated with Dulbecco's modified Eagles medium (MEM) supplemented with 0.1 mM nonessential amino acid solution for MEM, 5% v/v fetal bovine serum and 1 U/mL penicillin/streptomycin solution. Cells expressing the hNET transporter were incubated with Dulbecco's modified Eagles medium supplemented with 10% v/v fetal bovine serum and 100 U/mL penicillin/streptomycin solution and 2 mM L-glutamine. The cells were grown until 70-80% confluent on 175 cm^2 flasks in a humidified 10% CO2/90% air environment at 37° C., with the selecting antibiotic Geneticin sulfate at 250 μg/mL. The cells were incubated in 10% CO2, 90% air at 37° C. and 100% humidity.
(§3) Cell membranes containing hSERT, hNET, or hDAT were prepared from the cell lines to assay ligand binding for each of the transporters. […] The washed cells were incubated for 5 minutes at 37° C. in 10 mL solution 1 containing 100 mM ethylene glycol-bis N,N,N′,N′-tetraacetic acid (EGTA). The cells were then scraped from the flask surface with a rubber spatula, placed into a centrifuge tube, and collected by centrifugation at 1000×g for 5 minutes at 4° C. The resulting supernatant was discarded, and the cell pellet was resuspended in 0.5 to1.0 mL of the appropriate binding buffer (described below). The resuspended cell pellet was homogenized using a Polytron for 10 seconds at setting 6. The resulting homogenate was centrifuged at about 36,000×g for 10 minutes at 4° C. The supernatant was discarded, and the pellet was resuspended in the same volume of the appropriate binding buffer and centrifuged again. The supernatant was discarded, and the final pellet containing cell membranes was resuspended in the appropriate binding buffer and stored at −80° C. until use.
Radioligand binding assays for the indicated transporters were performed as follows. To assess binding to the cloned hSERT, cells expressing hSERT were homogenized in 50 mM Tris-HCl with 120 mM NaCl and 5 mM KCl (pH 7.4). The binding reaction consisted of 10 μg cell membrane protein, […] [^3H]citalopram (citalopram, [N-methyl-^3H], specific activity 79.0 Ci/mmol; PerkinElmer, Boston, Mass.), and varying concentrations of either unlabeled citalopram or the test compound. A reaction to determine non-specific binding consisted of 10 μg cell membrane protein, 0.5 nM [^3H]citalopram, and 1 μM final concentration of unlabeled citalopram. The reactions were incubated at 22° C. for 60 minutes. Following incubation, the reactions were terminated by rapid filtration through separate GF/B filter strips pretreated with 0.2% polyethylenimine in a 48-well Brandel cell harvester. The cell membrane-containing filter strips were then rinsed five times with ice-cold 0.9% NaCl. After rinsing, individual filters were cut from the strip and placed in a scintillation vial containing 6.5 mL of Redi-Safe (Beckman-Coulter, Fullerton, Calif.).
as §1

[3] = target: T2, human norepinephrine transporter (hNET) (Homo sapiens, UniProt P23975); test: Radioligand binding to cloned hNET, [3H]nisoxetine, HEK-293 cell membranes; conditions: Geometric Mean ± SEM; HCl salts; read-out: Equilibrium Dissociation Constant (KD) for Transporter Binding, hNET (N)
T2 construct: expressed in transfected cells; host or cells: HEK-293, stably transfected
Experimental: as §2, §3
To assess binding to the cloned hNET, cells expressing hNET were homogenized in 50 mM Tris-HCl with 300 mM NaCl and 5 mM KCl (pH 7.4). The binding reaction consisted of 5 μg cell membrane protein, 0.5 nM [^3H]nisoxetine (nisoxetine HCl, [N-methyl-^3H], specific activity 82.0 Ci/mmol; Amersham, Arlington Hts., Ill.), and varying concentrations of either unlabeled nisoxetine or the test compound. A reaction to determine non-specific binding consisted of 5 μg cell membrane protein, 0.5 nM [^3H]nisoxetine, and 1 μM final concentration of unlabeled nisoxetine. The reactions were incubated at 22° C. for 60 minutes. Following incubation, the reactions were terminated by rapid filtration through separate GF/B filter strips pretreated with 0.2% polyethylenimine in a 48-well Brandel cell harvester. The cell membrane-containing filter strips were then rinsed five times with ice-cold 0.9% NaCl. After rinsing, individual filters were cut from the strip and placed in a scintillation vial containing 6.5 mL of Redi-Safe (Beckman-Coulter, Fullerton, Calif.).
as §1

[4] = target: T3, human dopamine transporter (hDAT) (Homo sapiens, UniProt Q01959); test: Radioligand binding to cloned hDAT, [3H]WIN35428, HEK-293 cell membranes
T3 construct: expressed in transfected cells; host or cells: HEK-293, stably transfected
Experimental: as §2, §3
To assess binding to the cloned hDAT, cells expressing hDAT were homogenized in 50 mM Tris-HCl with 120 mM NaCl (pH 7.4). The binding reaction contained 15 μg cell membrane protein, 1 nM [^3H]WIN35428 (WIN35428, [N-methyl-^3H], specific activity 85.9 Ci/mmol; PerkinElmer, Boston, Mass.), and varying concentrations of either unlabeled WIN35428 or the test compound. A reaction to determine non-specific binding contained 15 μg cell membrane protein, 1 nM [^3H]WIN35428, and 10 μM final concentration of unlabeled WIN35428. The reactions were incubated at 22° C. for 1 hour. Following incubation, the reactions were terminated by rapid filtration through separate GF/B filter strips pretreated with 0.2% polyethylenimine in a 48-well Brandel cell harvester. The cell membrane-containing filter strips were then rinsed five times with ice-cold 0.9% NaCl. After rinsing, individual filters were cut from the strip and placed in a scintillation vial containing 6.5 mL of Redi-Safe (Beckman-Coulter, Fullerton, Calif.).
as §1

Male Sprague-Dawley rats = test: Forced swim test in rats; type: in vivo, rat; conditions: for Antidepressant activity in forced swim test compared with imipramine (15 mg/kg IP): FIG. 12A
Experimental: When rats are placed in a cylinder of water from which they cannot escape, they will remain immobile in the water for the majority of the test.
Water was changed between trials, and the procedure involved a pretest and a 5-minute test separated by 24 hours. During the pretest, rats (adapted to the experimental room for no less than one hour) were placed in the cylinder for 15 minutes. Following this initial exposure, the rats were dried with towels and transferred to a “drying cage” situated under a warming lamp. […] The following day, rats were transferred to the experimental room and acclimated for at least one hour.
The rat was considered immobile when floating motionless or making only those movements necessary to keep its head above the surface of the water. Scores for each behavior (swimming or immobility) were expressed as total counts per 5-minute session. Statistical analysis was performed using ANOVA followed by the Tukey test for post-hoc comparisons.

hERG = hERG (Homo sapiens, UniProt Q12809); test: hERG assay: block of rubidium ion (Rb+) efflux from cells expressing hERG
Experimental: Human “ether-a-go-go” (hERG) is an ion channel. Blockade of this channel can be predictive of causing cardiac arrhythmias in humans. hERG assays were performed to measure the ability of a compound to block rubidium ion (Rb^+) efflux from cells expressing hERG. Cells were pre-loaded with Rb^+, incubated with test compound, and then exposed to a buffer that opens the channel and allows the efflux of ions. Compounds as powder were dissolved in 100% DMSO to prepare 100 mM stock solutions. […] The stocks were stored at 23° C.
The range of doses for the test compounds was 30 nM through 100,000 nM.

CYP2D6 = target: T4, CYP2D6 (Homo sapiens, UniProt P10635); test: CYP2D6 inhibition, CYP2D6/AMMC kit (BD Biosciences), fluorescent substrate; type: in vitro ADME
T4 construct: purchased BD Biosciences 459200
Excerpt: This kit includes the use of a fluorescent P450 substrate (AMMC or 3-[2-(N,N-diethyl-N-methylamino)ethyl]-7-methoxy-4-methylcoumarin) and recombinant human P450.

T1 sequence (P31645 whole entry): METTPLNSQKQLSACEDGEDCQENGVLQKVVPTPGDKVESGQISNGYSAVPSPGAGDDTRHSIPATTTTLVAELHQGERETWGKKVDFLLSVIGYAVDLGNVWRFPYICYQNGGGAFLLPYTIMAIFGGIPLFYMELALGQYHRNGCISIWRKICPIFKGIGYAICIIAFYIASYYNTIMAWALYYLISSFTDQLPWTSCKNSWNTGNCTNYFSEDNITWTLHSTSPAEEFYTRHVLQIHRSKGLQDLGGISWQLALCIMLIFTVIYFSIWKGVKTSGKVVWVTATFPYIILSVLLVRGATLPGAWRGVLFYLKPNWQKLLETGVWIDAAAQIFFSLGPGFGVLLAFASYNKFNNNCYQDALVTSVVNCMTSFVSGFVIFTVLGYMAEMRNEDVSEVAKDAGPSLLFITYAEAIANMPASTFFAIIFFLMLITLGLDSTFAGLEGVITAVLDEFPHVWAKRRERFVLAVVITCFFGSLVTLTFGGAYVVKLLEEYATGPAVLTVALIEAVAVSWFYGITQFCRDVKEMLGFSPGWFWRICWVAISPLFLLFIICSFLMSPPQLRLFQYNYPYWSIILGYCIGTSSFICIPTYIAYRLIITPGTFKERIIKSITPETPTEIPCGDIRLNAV
T2 sequence (P23975 whole entry): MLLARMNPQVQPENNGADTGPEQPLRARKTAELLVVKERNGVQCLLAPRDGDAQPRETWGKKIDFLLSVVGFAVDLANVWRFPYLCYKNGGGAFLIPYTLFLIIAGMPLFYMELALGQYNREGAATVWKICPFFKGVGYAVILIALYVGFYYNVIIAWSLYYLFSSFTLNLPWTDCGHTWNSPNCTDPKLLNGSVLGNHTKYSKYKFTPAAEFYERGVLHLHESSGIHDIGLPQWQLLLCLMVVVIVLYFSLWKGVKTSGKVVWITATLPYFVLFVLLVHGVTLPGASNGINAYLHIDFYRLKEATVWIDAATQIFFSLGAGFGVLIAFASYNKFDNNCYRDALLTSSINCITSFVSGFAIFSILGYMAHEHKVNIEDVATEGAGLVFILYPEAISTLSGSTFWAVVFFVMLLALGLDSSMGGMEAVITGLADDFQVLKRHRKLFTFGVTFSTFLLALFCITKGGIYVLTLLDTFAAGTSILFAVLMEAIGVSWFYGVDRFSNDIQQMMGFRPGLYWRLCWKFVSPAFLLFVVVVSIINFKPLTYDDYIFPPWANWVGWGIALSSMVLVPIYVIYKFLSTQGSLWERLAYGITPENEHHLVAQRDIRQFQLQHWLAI
T3 sequence (Q01959 whole entry): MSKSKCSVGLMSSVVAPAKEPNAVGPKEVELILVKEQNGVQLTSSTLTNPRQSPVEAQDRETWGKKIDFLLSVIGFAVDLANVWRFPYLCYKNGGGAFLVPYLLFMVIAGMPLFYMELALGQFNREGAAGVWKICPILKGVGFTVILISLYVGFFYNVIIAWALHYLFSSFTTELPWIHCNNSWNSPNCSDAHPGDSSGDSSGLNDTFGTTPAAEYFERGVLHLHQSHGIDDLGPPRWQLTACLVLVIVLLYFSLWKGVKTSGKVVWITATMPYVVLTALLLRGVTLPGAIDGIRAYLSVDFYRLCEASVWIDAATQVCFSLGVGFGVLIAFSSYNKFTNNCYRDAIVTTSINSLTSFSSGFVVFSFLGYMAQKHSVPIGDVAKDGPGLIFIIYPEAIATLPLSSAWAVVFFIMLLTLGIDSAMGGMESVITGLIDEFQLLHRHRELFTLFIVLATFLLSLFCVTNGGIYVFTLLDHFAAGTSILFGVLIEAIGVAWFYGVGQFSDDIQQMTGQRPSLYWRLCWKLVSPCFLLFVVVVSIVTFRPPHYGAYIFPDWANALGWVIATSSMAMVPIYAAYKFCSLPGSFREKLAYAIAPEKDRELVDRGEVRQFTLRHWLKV
Chain of hERG (Q12809 whole entry): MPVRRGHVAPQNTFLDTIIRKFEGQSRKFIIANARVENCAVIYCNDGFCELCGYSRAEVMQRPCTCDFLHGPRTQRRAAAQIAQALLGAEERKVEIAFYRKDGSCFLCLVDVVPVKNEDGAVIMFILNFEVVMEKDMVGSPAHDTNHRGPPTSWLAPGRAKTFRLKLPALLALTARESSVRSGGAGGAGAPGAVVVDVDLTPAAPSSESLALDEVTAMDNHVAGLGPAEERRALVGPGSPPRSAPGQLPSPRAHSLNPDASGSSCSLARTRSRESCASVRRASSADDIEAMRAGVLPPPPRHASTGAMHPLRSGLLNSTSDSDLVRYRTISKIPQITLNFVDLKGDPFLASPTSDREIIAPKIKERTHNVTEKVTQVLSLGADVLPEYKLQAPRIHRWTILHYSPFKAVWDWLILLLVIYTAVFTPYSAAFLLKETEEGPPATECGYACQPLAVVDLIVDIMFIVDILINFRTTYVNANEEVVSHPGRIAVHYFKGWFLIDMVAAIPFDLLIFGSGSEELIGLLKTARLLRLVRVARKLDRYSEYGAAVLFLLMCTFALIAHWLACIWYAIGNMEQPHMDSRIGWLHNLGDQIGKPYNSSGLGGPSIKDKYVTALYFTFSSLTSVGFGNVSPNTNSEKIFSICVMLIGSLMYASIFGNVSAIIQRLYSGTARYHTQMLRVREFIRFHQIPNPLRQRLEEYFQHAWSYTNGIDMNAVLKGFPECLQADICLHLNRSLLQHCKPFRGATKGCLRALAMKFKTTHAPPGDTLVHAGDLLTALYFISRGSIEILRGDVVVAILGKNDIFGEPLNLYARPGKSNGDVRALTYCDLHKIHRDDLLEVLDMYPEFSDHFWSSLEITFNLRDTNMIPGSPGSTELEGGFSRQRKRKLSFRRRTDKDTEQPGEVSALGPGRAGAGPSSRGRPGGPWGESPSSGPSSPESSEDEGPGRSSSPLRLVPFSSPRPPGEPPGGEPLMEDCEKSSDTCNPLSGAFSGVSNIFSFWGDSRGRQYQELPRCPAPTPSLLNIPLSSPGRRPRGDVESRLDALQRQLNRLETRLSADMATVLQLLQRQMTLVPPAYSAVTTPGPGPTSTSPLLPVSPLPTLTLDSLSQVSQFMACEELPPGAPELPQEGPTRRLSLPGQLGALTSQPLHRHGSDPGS
T4 sequence (P10635 whole entry): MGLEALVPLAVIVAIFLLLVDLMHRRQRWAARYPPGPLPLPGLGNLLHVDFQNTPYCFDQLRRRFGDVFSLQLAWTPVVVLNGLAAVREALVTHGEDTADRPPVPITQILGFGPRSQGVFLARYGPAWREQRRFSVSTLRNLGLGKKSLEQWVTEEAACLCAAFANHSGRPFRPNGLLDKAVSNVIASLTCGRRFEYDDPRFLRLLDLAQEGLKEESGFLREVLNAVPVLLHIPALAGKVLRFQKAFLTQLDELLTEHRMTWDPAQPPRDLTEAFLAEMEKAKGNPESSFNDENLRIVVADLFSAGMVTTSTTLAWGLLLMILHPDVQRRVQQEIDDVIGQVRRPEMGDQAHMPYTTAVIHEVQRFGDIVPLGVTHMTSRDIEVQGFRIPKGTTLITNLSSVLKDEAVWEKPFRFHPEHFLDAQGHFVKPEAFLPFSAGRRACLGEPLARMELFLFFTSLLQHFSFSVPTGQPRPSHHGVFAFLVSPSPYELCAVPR

Row | SMILES | Potency (rank-order of potency of binding; S = hSERT, N = hNET, D = hDAT) (hSERT, hNET, hDAT) | Potency (rank order, transport into rat brain synaptosomal preparations) [1] | Kd [2] [nM] | Binding at hSERT compared to PRC200-SS [2] | Kd [3] [nM] | Kd [4] [nM] | Binding at hDAT compared to PRC200-SS ([4]; in words) | Potency Range (difference between most potent and least potent binding) (hSERT, hNET, hDAT) [fold] | Immobility in forced swim test vs saline (Male Sprague-Dawley rats; 5 mg/kg IP) | Swimming in forced swim test vs saline (Male Sprague-Dawley rats; 5 mg/kg IP) | Antidepressant activity in forced swim test compared with imipramine (15 mg/kg IP) (Male Sprague-Dawley rats; 5 mg/kg IP) | Immobility in forced swim test, 5 mg/kg IP vs 5 mg/kg PO of the same compound (Male Sprague-Dawley rats) | Immobility in forced swim test vs saline (Male Sprague-Dawley rats; 5 mg/kg IP, 5 mg/kg) | Swimming in forced swim test vs saline (Male Sprague-Dawley rats; 5 mg/kg IP, 5 mg/kg) | Climbing in forced swim test vs saline (Male Sprague-Dawley rats; 5 mg/kg PO) | Immobility in forced swim test vs saline (Male Sprague-Dawley rats; 5 mg/kg PO) | Swimming in forced swim test vs saline (Male Sprague-Dawley rats; 5 mg/kg PO) | IC50 (hERG) [nM] | Kd ([4]; Geometric Mean ± SEM, HCl salts, read-out: Equilibrium Dissociation Constant (KD) for Transporter Binding, hDAT (D)) [nM] | IC50 (CYP2D6) [nM]
1 | CN1Cc2c(N)cccc2C(c2ccccc2)C1 (centres unmarked) [Nomifensine, reference compound] | N > D > S | N > D > S |  |  |  |  |  |  |  |  |  |  |  |  |  |  |  |  |  | 
2 | CNC[C@H](c1ccc2ccccc2c1)[C@@H](Cl)c1ccccc1 [MCJ001-Cl-RS, (2S,3R)-3-chloro-N-methyl-2-(naphthalen-2-yl)-3-phenylpropan-1-amine] | S > D > N |  | 1.1 ± 0.1 | greater binding at hSERT | 10.4 ± 0.4 | 7.9 ± 0.4 | several fold more potent binding at hDAT | 9.5 | statistically (P<0.04) less immobility | statistically (P<0.04) more swimming behavior | antidepressant activity that was similar to that observed in rats treated with the positive control |  |  |  |  |  |  |  |  | 
3 | CN1CO[C@H](c2ccccc2)[C@@H](c2ccc3ccccc3c2)C1 [MCJ001-OH-Cyc-SS, (5S,6S)-3-methyl-5-(naphthalen-2-yl)-6-phenyl-1,3-oxazinane] | S > N > D |  | 1.8 ± 0.2 | greater binding at hSERT | 2.7 ± 0.3 | 52 ± 5 |  | 29 |  |  | antidepressant activity that was similar to that observed in rats treated with the positive control | statistically (P≦0.04) less immobility than rats treated with MCJ001-OH-Cyc-SS (5 mg/kg PO) | statistically (P<0.04) less immobility; also recorded: statistically (P≦0.04) less immobility | statistically (P<0.04) more swimming behavior | statistically (P≦0.04) more climbing | statistically (P≦0.04) less immobility | statistically (P≦0.04) more swimming |  |  | 
4 | CNC[C@H](c1ccc2ccccc2c1)[C@H](Cl)c1ccccc1 [MCJ001-Cl-SS, (2S,3S)-3-chloro-N-methyl-2-(naphthalen-2-yl)-3-phenylpropan-1-amine] | S > N > D |  | 1.1 ± 0.1 | greater binding at hSERT | 3.7 ± 0.5 | 78 ± 5 |  | 71 | statistically (P<0.04) less immobility | statistically (P<0.04) more swimming behavior | antidepressant activity that was similar to that observed in rats treated with the positive control |  |  |  |  |  |  | 45400 |  | 
5 | CNC[C@@H](c1ccc2ccccc2c1)[C@H](N)c1ccccc1 [MCJ001-NH2-SR, (2R,3S)-N1-methyl-2-(naphthalen-2-yl)-3-phenylpropane-1,3-diamine] | N > S > D |  | 180 ± 10 |  | 166 ± 8 |  |  | 1.6 |  |  |  |  |  |  |  |  |  |  | 260 ± 20 | 4100
